Measured values reported in publication PMC6017654, “Ionic Liquid-Promoted Synthesis of Novel Chromone-Pyrimidine Coupled Derivatives, Antimicrobial Analysis, Enzyme Assay, Docking Study and Toxicity Study” (Molecules : A Journal of Synthetic Chemistry and Natural …, 2018).
pIC50: −log10 of the molar value. Converted amounts (≈) assume the structure as drawn.

Key:
DdlB from E.coli = DdlB from E.coli (Escherichia coli, UniProt P07862); experiment: D-Alanine-D-alanine ligase (DdlB) enzyme inhibition, malachite green method; format: biochemical; details: 37 °C, 30 min incubation, 5% DMSO
Procedure: The key enzyme involved in the peptidoglycan biosynthesis is D-alanine-D-alanine ligase (Ddl), making it an important target for drug discovery. Inhibition of DdlB as an essential enzyme in either Gram-positive or Gram-negative organisms leads to the loss of cell shape and integrity followed by bacterial death. The synthesized derivatives 4(a–f) and 6(a–f) were tested for their inhibitory activity on DdlB from E.coli. The results are presented as IC50 values.
The D-Ala-adding activity of DdlB ligase was monitored by the detection of orthophosphate generated during the reaction based on the colorimetric malachite green method described by Walsh et al.. […] All the compounds were soluble in the assay mixture containing 5% DMSO. After 30 min of incubation, 100 µL Biomol reagent was added. After 5 min, absorbance was read at 650 nm. Residual activity was calculated with respect to a similar assay without inhibitor. To exclude possible non-specific (promiscuous) inhibitors, representative compounds 4(a–f) and 6(a–f) were also tested in the presence of Tween (0.003%), Triton X-114 (0.005%), and SDS (420 µM), as described by McGovern et al.. No significant differences were found when compared to measurements without detergents.

Escherichia coli 1411 = experiment: In vitro antibacterial activity (MIC100, two fold serial dilution, NCCLS); format: cell-based; details: Escherichia coli, 1411, 24 h, read-out: MIC100
Procedure: (§1) All the synthesized compounds 4(a–f) and 6(a–f) were screened for their in vitro antibacterial activity against Staphylococcus aureus (NCIM-2901), Escherichia coli 1411 (standard laboratory strains) and Escherichia coli SM1411 (an acrAB deficient derivative of 1411). Minimum inhibitory concentration (MIC100) values were determined using methods recommended by National Committee for Clinical Laboratory Standards (NCCLS). Dimethyl sulfoxide (DMSO) was used as solvent control.
(§2) All the synthesized compounds 4(a–f) and 6(a–f) were screened for their in vitro antibacterial activity against Staphylococcus aureus (NCIM-2901) and Escherichia coli 1411 (standard laboratory strains) and Escherichia coli SM1411 (an acrAB deficient derivative of 1411). Minimum inhibitory concentration (MIC100) values were determined using the method recommended by National Committee for Clinical Laboratory Standards (NCCLS). In vitro antibacterial activities of the synthesized compounds 4(a–f) and 6(a–f) were tested in Nutrient Broth (NB) for Bacteria by the two fold serial dilution method. Seeded broth (broth containing microbial spores) was prepared in NB from 24 h old bacterial cultures on nutrient agar (Hi-media) at 37 ± 1 °C. The bacterial suspension was adjusted with sterile saline to a concentration of […]. The synthesized compounds and standard drug D-cycloserine were prepared by two fold serial dilutions to obtain the required concentrations. The tubes were incubated in BOD incubators at 37 ± 1 °C for bacteria. The MICs were recorded by visual observations after 24 h (for bacteria) of incubation.

[1] = system: Escherichia coli SM1411 (an acrAB deficient derivative of 1411); experiment: as above; format: cell-based; details: 24 h, read-out: MIC100
Procedure: as §1, §2

[2] = system: Staphylococcus aureus (NCIM-2901); experiment: as above; format: cell-based; details: Staphylococcus aureus, NCIM2901, 24 h, read-out: MIC100, S. aureus NCIM-2901, average of three readings
Procedure: as §1, §2

A. flavus = experiment: In vitro antifungal activity (MIC100, CLSI/NCCLS); format: cell-based; details: Aspergillus flavus; A. fla.; average of three readings; read-out: MIC 100
Procedure: (§3) The newly synthesized derivatives 4(a–f) and 6(a–f) were screened for their in vitro antifungal activity against different yeast and filamentous fungal pathogens. Minimum inhibitory concentration (MIC100) values for in vitro antifungal activity were determined by the methods recommended by National Committee for Clinical Laboratory Standards (NCCLS). Miconazole was used as standard drug. Dimethyl sulfoxide (DMSO) was used as solvent control.
(§4) In vitro antifungal activity was determined as per CLSI (formerly, NCCLS) guidelines. […] The medium yeast nitrogen base was dissolved in phosphate buffer pH 7 and it was autoclaved at 110 °C for 10 min. With each set a growth control without the antifungal agent and solvent control DMSO were included. The fungal strains were freshly sub cultured on to Sabouraud dextrose agar (SDA) and incubated at 25 °C for 72 h. The fungal cells were suspended in sterile distilled water and diluted to get 10^5 cells/mL. Further, ten microlitres of the standardized suspension was inoculated onto the control plates and the media incorporated with the antifungal agents. The inoculated plates were incubated at 25 °C for 48 h. The readings were taken at the end of 48 h and 72 h. The MIC was the lowest concentration of drug preventing growth of macroscopically visible colonies on drug containing plates when there was visible growth on the drug free control plates.

Aspergillus fumigates = experiment: In vitro antifungal activity (MIC100, CLSI/NCCLS); format: cell-based; details: A. fum., average of three readings, read-out: MIC 100
Procedure: as §3, §4

Aspergillus niger = experiment: In vitro antifungal activity (MIC100, CLSI/NCCLS); format: cell-based; details: A. nig., average of three readings, read-out: MIC 100
Procedure: as §3, §4

Candida albicans = experiment: In vitro antifungal activity (MIC100, CLSI/NCCLS); format: cell-based; details: C. alb., average of three readings, read-out: MIC 100
Procedure: as §3, §4

Candida glabrata = experiment: In vitro antifungal activity (MIC100, CLSI/NCCLS); format: cell-based; details: Nakaseomyces glabratus; C. glab.; average of three readings; read-out: MIC 100
Procedure: as §3, §4

Cryptococcus neoformans = experiment: In vitro antifungal activity (MIC100, CLSI/NCCLS); format: cell-based; details: C. neo., average of three readings, read-out: MIC 100
Procedure: as §3, §4

Fusarium oxysporum = experiment: In vitro antifungal activity (MIC100, CLSI/NCCLS); format: cell-based; details: F. oxy., average of three readings, read-out: MIC 100
Procedure: as §3, §4

COc1ccc2occ(C3NC(=S)NC(C)=C3C(=O)NN)c(=O)c2c1 (centres unmarked) [Compound 6f, 4-(6-Methoxy-4-oxo-4H-chromen-3-yl)-6-methyl-2-thioxo-1,2,3,4-tetrahydropyrimidine-5-carbohydrazide]
pIC50 (DdlB from E.coli): < 3.40
MIC (Escherichia coli 1411): > 60 µg/mL
MIC [1]: > 60 µg/mL
MIC [2]: > 200 µg/mL
MIC (A. flavus): 15 µg/mL (≈ 41.6 µM)
MIC (Aspergillus fumigates): 33 µg/mL (≈ 91.6 µM)
MIC (Aspergillus niger): 16 µg/mL (≈ 44.4 µM)
MIC (Candida albicans): 24 µg/mL (≈ 66.6 µM)
MIC (Candida glabrata): 25 µg/mL (≈ 69.4 µM)
MIC (Cryptococcus neoformans): 15 µg/mL (≈ 41.6 µM)
MIC (Fusarium oxysporum): 28 µg/mL (≈ 77.7 µM)
